Source: US20030186967A1, “Acylresorcinol derivatives are selective vitronectin receptor inhibitors” (American Home Products Corporation, priority 1998, published 2003)

Target: T1, Vitronectin receptor αVβ3 (Homo sapiens, UniProt P05106+P06756)
T1 construct: expressed in transfected cells; host or cells: 512P5 cells (plasma membrane preparation)
Experiment: Vitronectin Receptor αVβ3 Binding Assay
Conditions: read-out: VnR (IC50μM)

T1 sequence (P06756 31-889 limits assumed): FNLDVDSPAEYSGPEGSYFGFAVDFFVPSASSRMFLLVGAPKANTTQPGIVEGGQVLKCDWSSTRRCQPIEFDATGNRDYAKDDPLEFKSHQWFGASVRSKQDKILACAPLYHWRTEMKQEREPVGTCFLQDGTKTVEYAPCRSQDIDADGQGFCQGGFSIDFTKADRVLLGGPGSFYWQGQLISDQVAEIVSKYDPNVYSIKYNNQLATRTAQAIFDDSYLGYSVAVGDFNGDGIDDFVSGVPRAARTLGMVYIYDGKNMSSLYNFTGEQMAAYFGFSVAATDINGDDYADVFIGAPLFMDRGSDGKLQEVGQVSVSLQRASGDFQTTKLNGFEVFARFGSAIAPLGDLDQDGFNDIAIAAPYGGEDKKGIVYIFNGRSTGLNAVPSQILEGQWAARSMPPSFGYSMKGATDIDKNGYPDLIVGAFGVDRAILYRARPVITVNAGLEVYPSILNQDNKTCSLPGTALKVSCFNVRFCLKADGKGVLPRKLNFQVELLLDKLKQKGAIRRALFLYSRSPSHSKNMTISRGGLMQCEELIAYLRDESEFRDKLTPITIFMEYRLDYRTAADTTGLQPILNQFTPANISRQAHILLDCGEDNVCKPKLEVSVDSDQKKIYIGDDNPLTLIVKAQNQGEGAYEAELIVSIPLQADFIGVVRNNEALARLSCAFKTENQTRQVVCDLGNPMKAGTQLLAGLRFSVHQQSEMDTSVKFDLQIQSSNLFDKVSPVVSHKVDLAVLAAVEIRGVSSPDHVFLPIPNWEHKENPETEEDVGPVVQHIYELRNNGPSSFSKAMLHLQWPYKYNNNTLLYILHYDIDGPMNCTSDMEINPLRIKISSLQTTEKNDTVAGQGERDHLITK
T1 sequence (P06756 891-1048 partner limits assumed): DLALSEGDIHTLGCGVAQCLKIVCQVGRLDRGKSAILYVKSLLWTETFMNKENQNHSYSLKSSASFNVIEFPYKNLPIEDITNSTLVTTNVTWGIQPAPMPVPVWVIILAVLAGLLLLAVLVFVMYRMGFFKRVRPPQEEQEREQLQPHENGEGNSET
T1 sequence (P05106 27-788): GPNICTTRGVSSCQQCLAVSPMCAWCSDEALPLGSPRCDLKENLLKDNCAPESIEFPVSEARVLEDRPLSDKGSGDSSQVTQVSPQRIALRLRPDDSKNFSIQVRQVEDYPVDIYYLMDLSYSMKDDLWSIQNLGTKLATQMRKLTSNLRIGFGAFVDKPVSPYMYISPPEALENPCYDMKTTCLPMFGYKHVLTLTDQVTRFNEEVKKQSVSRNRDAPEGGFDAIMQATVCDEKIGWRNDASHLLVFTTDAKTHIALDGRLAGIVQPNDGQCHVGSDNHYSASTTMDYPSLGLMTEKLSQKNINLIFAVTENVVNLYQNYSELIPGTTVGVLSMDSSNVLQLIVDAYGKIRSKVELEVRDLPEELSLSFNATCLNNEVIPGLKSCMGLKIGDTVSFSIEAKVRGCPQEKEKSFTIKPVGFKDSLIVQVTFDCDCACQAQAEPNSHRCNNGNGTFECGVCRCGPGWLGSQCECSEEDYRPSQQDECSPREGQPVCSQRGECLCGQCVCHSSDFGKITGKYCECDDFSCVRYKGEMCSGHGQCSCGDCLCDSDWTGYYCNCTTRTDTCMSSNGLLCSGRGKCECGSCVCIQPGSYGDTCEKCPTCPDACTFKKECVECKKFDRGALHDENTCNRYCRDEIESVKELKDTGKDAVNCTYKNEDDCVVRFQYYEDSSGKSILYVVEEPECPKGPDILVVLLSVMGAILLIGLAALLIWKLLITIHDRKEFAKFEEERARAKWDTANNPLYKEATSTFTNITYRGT

| SMILES | IC50 [µM] |
| --- | --- |
| O=C(N[C@@H](CNC(=O)c1ccc(OCCNC2=NCCN2)cc1O)C(=O)O)c1cccc(Cl)c1 [Example 141, (2S)-2-[(3-chlorobenzoyl)amino]-3-({4-[2-(4,5-dihydro-1H-imidazol-2-ylamino)-ethoxy]-2-hydroxybenzoyl}amino)propanoic acid] | > 1 |
| CC(C)(C)COC(=O)N[C@@H](CNC(=O)c1ccc(OCCNC2=NCCCCC2)cc1O)C(=O)O [Example 142, (2S)-3-({2-hydroxy-4-[2-(3,4,5,6-tetrahydro-2H-azepin-7-ylamino)ethoxy]benzoyl}amino)-2-{[(neopentyloxy)carbonyl]amino}propanoic acid] | 1.6 |
| O=C(N[C@@H](CNC(=O)c1ccc(OCCNC2=NCCCCC2)cc1O)C(=O)O)OCc1ccccc1 [Example 143, (2S)-2-{[(benzyloxy)carbonyl]amino}-3-({2-hydroxy-4-[2-(3,4,5,6-tetrahydro-2-azepin-7-ylamino)ethoxy]benzoyl}amino)propanoic acid] | 4.79 |
| O=C(N[C@@H](CNC(=O)c1ccc(OCCNC2=NCCCCC2)cc1O)C(=O)O)OCC(Cl)(Cl)Cl [Example 153, (2S)-3-({2-hydroxy-4-[2-(3,4,5,6-tetrahydro-2H-azepin-7-ylamino)ethoxy]benzoyl}-amino)-2-{[(2,2,2-trichloroethoxy)carbonyl]amino}propanoic acid] | 2.4 |
| CC(C)(C)COC(=O)N[C@@H](CNC(=O)c1ccc(OCCNC(=N)N)cc1O)C(=O)O [Example 156, (2S)-3-{[4-(2-{[amino(imino)methyl]amino}ethoxy)-2-hydroxy-benzoyl]amino}-2-{[(neopentyloxy)carbonyl]amino}propanoic acid] | 0.25 |
| COC(=O)N[C@@H](CNC(=O)c1ccc(OCCNC(=N)N)cc1O)C(=O)O [Example 158, (2S)-3-{[4-(2-{[amino(imino)methyl]amino)ethoxy)-2-hydroxybenzoyl]amino}-2-[(methoxycarbonyl)amino]propanoic acid] | 4.6 |
| CCOC(=O)N[C@@H](CNC(=O)c1ccc(OCCNC(=N)N)cc1O)C(=O)O [Example 159, (2S)-3-{[4-(2-{[amino(imino)methyl]amino)ethoxy)-2-hydroxybenzoyl]amino}-2-[(ethoxycarbonyl)amino]propanoic acid] | 2 |
| CCCOC(=O)N[C@@H](CNC(=O)c1ccc(OCCNC(=N)N)cc1O)C(=O)O [Example 160, (2S)-3-{[4-(2-{[amino(imino)methyl]amino}ethoxy)-2-hydroxybenzoyl]amino}-2-[(propoxycarbonyl)amino]propanoic acid] | 0.97 |
| CC(C)OC(=O)N[C@@H](CNC(=O)c1ccc(OCCNC(=N)N)cc1O)C(=O)O [Example 161, (2S)-3-{[4-(2-{[amino(imino)methyl]amino}ethoxy)-2-hydroxybenzoyl]amino}-2-[(isopropoxycarbonyl)amino]propanoic acid] | 0.9 |
| C=CCOC(=O)N[C@@H](CNC(=O)c1ccc(OCCNC(=N)N)cc1O)C(=O)O [Example 162] | 1.1 |
| C=CCCOC(=O)N[C@@H](CNC(=O)c1ccc(OCCNC(=N)N)cc1O)C(=O)O [Example 163, (2S)-3-{[4-(2-{[amino(imino)methyl]amino}ethoxy)-2-hydroxybenzoyl]amino}-2-{[(but-3-enyloxy)carbonyl]amino}propanoic acid] | 1.1 |
| CCCCOC(=O)N[C@@H](CNC(=O)c1ccc(OCCNC(=N)N)cc1O)C(=O)O [Example 164, (2S)-3-{[4-(2-{[amino(imino)methyl]amino}ethoxy)-2-hydroxybenzoyl]amino}-2-[(butoxycarbonyl)amino]propanoic acid] | 0.61 |
| N=C(N)NCCOc1ccc(C(=O)NC[C@H](NC(=O)OCC(Cl)(Cl)Cl)C(=O)O)c(O)c1 [Example 165, (2S)-3-{[4-(2-{[amino(imino)methyl]amino}ethoxy)-2-hydroxybenzoyl]amino}-2-{[(2,2,2-trichloroethoxy)carbonyl]amino}propanoic acid] | 0.39 |
| CCCCCCOC(=O)N[C@@H](CNC(=O)c1ccc(OCCNC(=N)N)cc1O)C(=O)O [Example 166, (2S)-3-{[4-(2-{[amino(imino)methyl]amino}ethoxy)-2-hydroxybenzoyl]amino}-2-{[(hexyloxy)carbonyl]amino}propanoic acid] | 0.8 |
| C#CCOC(=O)N[C@@H](CNC(=O)c1ccc(OCCNC(=N)N)cc1O)C(=O)O [Example 167, (2S)-3-{[4-(2-{[amino(imino)methyl]amino}ethoxy)-2-hydroxybenzoyl]amino}-2-{[(prop-2-ynyloxy)carbonyl]amino}propanoic acid] | 2.6 |
| Cc1ccccc1NC(=O)N[C@@H](CNC(=O)c1ccc(OCCNC(=N)N)cc1O)C(=O)O [Example 173, (2S)-3-{[4-(2-{[amino(imino)methyl]amino}ethoxy)-2-hydroxybenzoyl]amino}-2-[(2-toluidinocarbonyl)amino]propanoic acid] | 4.28 |
| COc1ccccc1NC(=O)N[C@@H](CNC(=O)c1ccc(OCCNC(=N)N)cc1O)C(=O)O [Example 174, (2S)-3-{[4-(2-{[amino(imino)methyl]amino}ethoxy)-2-hydroxybenzoyl]amino}-2-{[(2-methoxyanilino)carbonyl]amino}propanoic acid] | 3.89 |

| SMILES | IC50 [µM] |
| --- | --- |
| N=C(N)NCCOc1ccc(C(=O)NC[C@H](NC(=O)Nc2ccccc2Cl)C(=O)O)c(O)c1 [Example 175, (2S)-3-{[4-(2-{[amino(imino)methyl]amino}ethoxy)-2-hydroxybenzoyl]amino}-2-{[(2-chloroanilino)carbonyl]amino}propanoic acid] | 3.8 |
| N=C(N)NCCOc1ccc(C(=O)NC[C@H](NC(=O)Nc2ccccc2Br)C(=O)O)c(O)c1 [Example 176, (2S)-3-{[4-(2-{[amino(imino)methyl]amino}ethoxy)-2-hydroxybenzoyl]amino}-2-{[(2-bromoanilino)carbonyl]amino}propanoic acid] | 2.14 |
| N=C(N)NCCOc1ccc(C(=O)NC[C@H](NC(=O)Nc2ccccc2-c2ccccc2)C(=O)O)c(O)c1 [Example 177] | 4.87 |
| Cc1ccc(NC(=O)N[C@@H](CNC(=O)c2ccc(OCCNC(=N)N)cc2O)C(=O)O)cc1 [Example 178, (2S)-3-{[4-(2-{[amino(imino)methyl]amino}ethoxy)-2-hydroxybenzoyl]amino}-2-[(4-toluidinocarbonyl)amino]propanoic acid] | 3.13 |
| N=C(N)NCCOc1ccc(C(=O)NC[C@H](NC(=O)Nc2ccc(OC(F)(F)F)cc2)C(=O)O)c(O)c1 [Example 179, (2S)-3-{[4-(2-{[amino(imino)methyl]amino}ethoxy)-2-hydroxybenzoyl]amino}-2-({[4-(trifluoromethoxy)anilino]carbonyl}amino)propanoic acid] | > 1 |
| N=C(N)NCCOc1ccc(C(=O)NC[C@H](NC(=O)Nc2ccc(Cl)cc2)C(=O)O)c(O)c1 [Example 180, (2S)-3-{[4-(2-{[amino(imino)methyl]amino}ethoxy)-2-hydroxybenzoyl]amino}-2-{[(4-chloroanilino)carbonyl]amino}propanoic acid] | 19.5 |
| N=C(N)NCCOc1ccc(C(=O)NC[C@H](NC(=O)Nc2ccc(F)cc2)C(=O)O)c(O)c1 [Example 181, (2S)-3-{[4-(2-{[amino(imino)methyl]amino}ethoxy)-2-hydroxybenzoyl]amino}-2-{[(4-fluoroanilino)carbonyl]amino}propanoic acid] | 19.7 |
| CC(=O)c1ccc(NC(=O)N[C@@H](CNC(=O)c2ccc(OCCNC(=N)N)cc2O)C(=O)O)cc1 [Example 182, (2S)-2-{[(4-acetylanilino)carbonyl]amino}-3-{[4-(2-{[amino(imino)methyl]-amino}ethoxy)-2-hydroxybenzoyl]amino}propanoic acid] | 40.9 |
| N=C(N)NCCOc1ccc(C(=O)NC[C@H](NC(=O)NC2CCCCC2)C(=O)O)c(O)c1 [Example 183, (2S)-3-{[4-(2-{[amino(imino)methyl]amino}ethoxy)-2-hydroxybenzoyl]amino}-2-{[(cyclohexylamino)carbonyl]amino}propanoic acid] | 4.98 |
| N=C(N)NCCOc1ccc(C(=O)NC[C@H](NC(=O)Nc2cccc3ccccc23)C(=O)O)c(O)c1 [Example 184, (2S)-3-{[4-(2-{[amino(imino)methyl]amino}ethoxy)-2-hydroxybenzoyl]amino}-2-{[(1-naphthylamino)carbonyl]amino}propanoic acid] | 17.9 |
| N=C(N)NCCOc1ccc(C(=O)NC[C@H](NC(=O)NCc2ccccc2)C(=O)O)c(O)c1 [Example 185, (2S)-3-{[4-(2-{[amino(imino)methyl]amino}ethoxy)-2-hydroxybenzoyl]amino}-2-{[(benzylamino)carbonyl]amino}propanoic acid] | 4.57 |
| N=C(N)NCCOc1ccc(C(=O)NC[C@H](NC(=O)NCCc2ccccc2)C(=O)O)c(O)c1 [Example 186] | 6.99 |
| CCCCCCCCNC(=O)N[C@@H](CNC(=O)c1ccc(OCCNC(=N)N)cc1O)C(=O)O [Example 187, (2S)-3-{[4-(2-{[amino(imino)methyl]amino}ethoxy)-2-hydroxybenzoyl]amino}-2-{[(octylamino)carbonyl]amino}propanoic acid] | 19.5 |
| COc1ccc(NC(=O)N[C@@H](CNC(=O)c2ccc(OCCNC(=N)N)cc2O)C(=O)O)cc1 [Example 188] | 12.1 |
| N=C(N)NCCOc1ccc(C(=O)NC[C@H](NC(=O)Nc2ccccc2)C(=O)O)c(O)c1 [Example 189, (2S)-3-{[4-(2-{[amino(imino)methyl]amino}ethoxy)-2-hydroxybenzoyl]amino}-2-[(anilinocarbonyl)amino]propanoic acid] | 6.87 |
| CC(C)C(=O)N[C@@H](CNC(=O)c1ccc(OCCNC(=N)N)cc1O)C(=O)O [Example 190, (2S)-3-{[4-(2-{[amino(imino)methyl]amino}ethoxy)-2-hydroxybenzoyl]amino}-2-(isobutyrylamino)propanoic acid] | > 1 |
| CCCC(=O)N[C@@H](CNC(=O)c1ccc(OCCNC(=N)N)cc1O)C(=O)O [Example 191, (2S)-3-{[4-(2-{[amino(imino)methyl]amino}ethoxy)-2-hydroxybenzoyl]amino}-2-(butyrylamino)propanoic acid] | > 1 |
